Reference: patent US8927576B2, “HCV inhibitor and therapeutic agent combinations” (PTC Therpeutics, Inc., priority 2009, dated 2015)

The molecules below were run on HCV replicon (replicon cells) (assay: Replicon response to antiviral agent(s): luciferase replicon inhibition, combination of HCV inhibitor and therapeutic agent). Conditions: in combination with Cpd 661; range over the combination ratios (Cpd 661:agent) tested; replicon cells treated three days; luciferase (Bright Glo).
Assay type: cell-based
Procedure: Replicon cells were seeded at 5000 cells/well in 96-well plates and were treated with a HCV inhibitor and/or a HCV therapeutic agent for three days. The growth medium consisted of a final concentration of 0.5% DMSO and 10% fetal bovine serum.
The HCV therapeutic agents, an interferon-α, a NS5b HCV polymerase inhibitor Compound 1p and a NS3/NS4a HCV protease inhibitor Compound 2p in the compound treatment samples were each serially diluted to the concentration ratios indicated in Table 1. Replicon cells in the untreated control were not treated with a HCV inhibitor or therapeutic agent. To each concentration of therapeutic agent, the HCV inhibitor Compound 661 was titrated. After three days, Bright Glo agent was used to detect luciferase activity. The activity of the medium without cells was measured as the background control. Replicon inhibition was calculated using the following formula: […]

Molecule	Combination Index IC50	Combination Index IC75	Combination Index IC90
CC(C)CCn1c(=O)c(C2=Nc3ccccc3S(=O)(=O)N2)c(O)c2ccccc21 [Cpd 1p, 3-(1,1-dioxido-2H-1,2,4-benzothiadiazin-3-yl)-4-hydroxy-1-(3-methylbutyl)quinolin-2(1H)-one]	0.19-0.94	0.13-0.61	0.09-0.4
C=C[C@H]1C[C@@]1(NC(=O)[C@@H]1C[C@@H](Oc2cc(-c3ccccc3)nc3cc(OC)ccc23)CN1C(=O)[C@@H](NC(=O)OC(C)(C)C)C(C)(C)C)C(=O)NS(=O)(=O)C1CC1 [Cpd 2p, N-(tert-butoxycarbonyl)-3-methyl-L-valyl-(4R)-N-{(1S,2R)-1-[(cyclopropylsulfonyl)carbamoyl]-2-ethenylcyclopropyl}-4-[(7-methoxy-2-phenylquinolin-4-yl)oxy]-L-prolinamide]	0.26-0.91	0.27-0.66	0.29-0.48
interferon-α	0.36-0.84	0.42-0.78	0.35-0.72
